What was measured:
Assay type in all cases: cell-based, dog
canine cartilage [1] = assay: Protein synthesis, 35S-methionine and 35S-cysteine incorporation into cartilage matrix; conditions: no catabolic stimuli
Description: (§1) To assess the potential effect of n-3 fatty acids on protein and proteoglycan metabolism in canine cartilage, cultures were set up as described in Example 1 except for the final 4 days of culture, no catabolic stimuli were added (i.e., all “control” cultures). During the final 24 hours of culture (1) ^35SO4, or (ii) ^35S-methionine and ^35S-cysteine, were added to the medium to radiolabel newly synthesized proteoglycans and proteins, respectively. The incorporation of radiolabel into the cartilage matrix was measured at the termination of culture. No attempt was made to quantitate loss of radiolabelled material from the cartilage over the 24-hour labeling period. The mean and standard deviation of the incorporation of ^35SO4 (“PG”) or ^35S-methionine and ^35S-cysteine (“PROT”) as DPM/mg wet weight are shown in Table 5 below, […]

canine cartilage [2] = assay: Proteoglycan synthesis, 35SO4 incorporation into cartilage matrix; conditions: no catabolic stimuli
Description: as §1

[3] = tested on: canine articular cartilage explants; assay: Glycosaminoglycan (GAG) release from cultured canine cartilage explants
Description: This example illustrates the release of glycosaminoglycan elicited by omega-3 fatty acids in cultured canine cartilage tissue.
Articular cartilage was obtained from left and right stifles (both femoral condyles and tibial plateau) of dogs. Cartilage explants cultured for 3 days in medium with 10% fetal bovine serum, then washed 3 times in serum free medium. Explants then cultured for 6 days in serum free medium containing 0, 100 or 300 μg/ml n3 fatty acid (EPA, ALA or DHA). After this period in fatty acid medium, all explants were washed 3 times in fatty acid free/serum free medium. Explants were then cultured individually for 4 days in 1 ml of fatty acid and serum free medium containing no additives (C), 10^−6M retinoic acid (RA) or 50 ng/ml oncostatin M (OSM). Note that not all treatments were possible on all dogs because of cartilage availability. The release of proteoglycan into the medium (μg/mg wet weight) was measured at the termination of culture. In the tables below, the mean and standard deviation of glycosaminoglycan (GAG) release for the triplicate cultures for each of the 4 dogs are given. In addition, the media lactate (μg/mg wet weight) concentrations were given for each treatment.

Structure (SMILES)	PROT Mean (incorporation of 35S-methionine and 35S-cysteine) (canine cartilage [1]; 100 μg/ml) [DPM/mg wet weight]	PROT Mean (incorporation of 35S-methionine and 35S-cysteine) (canine cartilage [1]; 300 μg/ml) [DPM/mg wet weight]	PG Mean (incorporation of 35SO4) (canine cartilage [2]; 100 μg/ml) [DPM/mg wet weight]	PG Mean (incorporation of 35SO4) (canine cartilage [2]; 300 μg/ml) [DPM/mg wet weight]	GAG Mean ([3]; Dog 2, C, 100 μg/ml)	GAG Mean ([3]; Dog 2, C, 300 μg/ml)	GAG Mean ([3]; Dog 2, OSM, 100 μg/ml) [μg/mg wet weight]	GAG Mean ([3]; Dog 2, OSM, 300 μg/ml) [μg/mg wet weight]	GAG Mean ([3]; Dog 3, C, 100 μg/ml) [μg/mg wet weight]	GAG Mean ([3]; Dog 3, C, 300 μg/ml) [μg/mg wet weight]	GAG Mean ([3]; Dog 3, OSM, 100 μg/ml) [μg/mg wet weight]	GAG Mean ([3]; Dog 3, OSM, 300 μg/ml) [μg/mg wet weight]	GAG Mean ([3]; Dog 3, RA, 100 μg/ml) [μg/mg wet weight]	GAG Mean ([3]; Dog 3, RA, 300 μg/ml) [μg/mg wet weight]	GAG Mean ([3]; Dog 4, C, 100 μg/ml) [μg/mg wet weight]	GAG Mean ([3]; Dog 4, C, 300 μg/ml) [μg/mg wet weight]	GAG Mean ([3]; Dog 4, OSM, 100 μg/ml) [μg/mg wet weight]	GAG Mean ([3]; Dog 4, OSM, 300 μg/ml) [μg/mg wet weight]	GAG Mean ([3]; Dog 4, RA, 100 μg/ml) [μg/mg wet weight]	GAG Mean ([3]; Dog 4, RA, 300 μg/ml) [μg/mg wet weight]	other results
CC/C=C\C/C=C\C/C=C\CCCCCCCC(=O)O [ALA, alpha-linolenic acid]	503.667	393.667	246.333	443.0	1.12 μg/mg wet weight	.993 μg/mg wet weight	8.497	6.42	2.117	2.447	22.033	23.467	20.44	24.467	2.103	1.533	11.7	19.557	12.547	14.093	change in GAG release ([3]; Dog 2, OSM treated cultures): not ALA or DHA significantly decreased
CC/C=C\C/C=C\C/C=C\C/C=C\C/C=C\C/C=C\CCC(=O)O [DHA, Docosahexaenoic acid]	503.667	564.333	156.0	123.333	.640 μg/mg wet weight	.843 μg/mg wet weight	8.567	6.073	1.903	1.55	11.667	11.630	21.093	19.457	2.343	2.307	24.967	16.4	11.28	11.3	–
CC/C=C\C/C=C\C/C=C\C/C=C\C/C=C\CCCC(=O)O [EPA, Eicosapentaenoic acid]	442.0	504.0	537.333	275.667	.340 μg/mg wet weight	.573 μg/mg wet weight	5.25	2.83	1.673	1.567	17.85	8.1	16.223	1.537	2.687	2.1	15.883	13.493	14.393	9.093	GAG Mean ([3]; Dog 1, C (no additives), 100 μg/ml): 1.590 μg/mg wet weight; GAG Mean ([3]; Dog 1, C (no additives), 300 μg/ml): 1.036 μg/mg wet weight; GAG Mean ([3]; Dog 1, OSM (50 ng/ml oncostatin M), 100 μg/ml): 6.293 μg/mg wet weight; GAG Mean ([3]; Dog 1, OSM, 300 μg/ml): 2.167 μg/mg wet weight; GAG Mean ([3]; Dog 1, RA (10^−6M retinoic acid), 100 μg/ml): 8.677 μg/mg wet weight; GAG Mean ([3]; Dog 1, RA, 300 μg/ml): 1.593 μg/mg wet weight
